US20250176550A1, “HERBICIDE COMPOSITION OF URACIL COMPOUND CONTAINING CARBOXYLATE FRAGMENT AND THE USE THEREOF” (Jiangsu Flag Chemical Industry Co., Ltd., priority 2022, published 2025)

Columns and labels:
Format in all cases: in vivo
veronica persica = assay: Indoor virulence and combined effect, greenhouse pot test, post-emergence stem and leaf spray, fresh weight inhibition
How it was run: (§1)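 Weeds in greenhouse pots received a spray-tower treatment, either post-emergence at the 3–4 leaf (grasses) or 4–6 leaf (broadleaf) stage, or pre-emergence as a soil spray 24 h after sowing. Compounds were applied in acetone diluted with 0.1 wt% Tween-80 water, alone or mixed, in g/ha. Fresh weight inhibition was measured at 21 days, with synergy judged by Gowing expected efficacy (E−E0 >10%).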

setaria viridis = assay: as above
How it was run: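 Greenhouse potted weeds sprayed post-emergence on stem and leaf at 3–4 leaf stage, with A and B alone or mixed; acetone solutions diluted in 0.1 wt% Tween-80, solvent-emulsifier water as blank.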

digitaria sanguinalis = assay: Indoor virulence and combined effect, greenhouse pot test, pre-emergence soil spray treatment, fresh weight inhibition
Method: (§2) The active ingredients A and B are respectively screened and an indoor combined effect of the composition on weeds was evaluated by an indoor test and a field test, to determine a combined effect of the composition on weeds.
(§3) Quantitative seeds of Poaceae weeds (echinochloa crusgalli, Digitaria sanguinalis, setaria viridis, Eleusine indica, avena fatua, alopecurus japonicus, alopecurus aequalis, Lolium multiflorum) and broadleaf weeds (eclipta prostrata, rorippa dubia, Abutilon theophrasti, conyza canadensis, veronica persica, myosoton aquaticum, polygonum lapathifolium, galium aparine var. tenerum, alisma plantago-aquatica, geranium carolinianum) were sown in paper cup containing nutrient soil with a diameter of 7 cm, covered with soil for 1 cm after sowing. After pressing and watering, they were cultured in a greenhouse according to a conventional method. Poaceae weeds grew to 3˜4 leaf stage, broad-leaved weeds grew to 4˜6 leaf stage, spraying treatment to both stem and leaf was performed; and pre-seedling soil spray treatment was performed 24 hours after sowing. Following an experimental design dosage, a WP-2000 walking spray tower (spindle speed 96 mm/r, spray height 200 mm, effective spray amplitude of nozzle 350 mm, nozzle flow rate 390 mL/min, nozzle walking speed 210 mm/s) was used for the spray treatment. The experiment was repeated three times. After being treated, a sample material is placed in an operation hall, and after the drug solution is naturally dried out, the sample material is placed in a greenhouse and managed according to the conventional method. A reaction of weeds to the drug agent is observed and recorded, and a regularly visual check of a control effect of the drug agent on weeds was performed after the treatment.
(§4) All of original drugs were using acetone as a solvent, being diluted with 0.1 wt % emulsifier of Tween-80 aqueous solution, and being diluted right before using.
(§5) When determining a ratio or content of the active ingredient A and the active ingredient B, it should be measured from characteristics of action of both agents and virulence thereof, as well as the main purpose of use of a formula shall also be considered in. In the present study, on a basis of previous pre-test, the dosages of the active ingredient A and the active ingredient B were set, when being used alone and mixed, as shown in the following table. Water containing no agent, but containing the same solvent and emulsifier was used as a blank control.
(§6) Repeat 4 times for each treatment, 3 pots per treatment each time and 30 weed seeds were sown for each pot.
(§7) Adopting an absolute number survey method, using a blade to cut the whole seedling of surviving weed along soil surface, and weighting the fresh weight of the weed with an analytical balance. For weeds that had died, counting the fresh weight as zero.
(§8) Survey period and frequency: 21 days after the treatment, total 1 investigation.
(§9) The theoretical fresh weight inhibition rate (E0-Expected Efficacy=[…]) of each treatment combination was calculated by Gowing method, and then compared with the measured inhibition rate (E-Observed Efficacy) to evaluate the combined effect type of both on weeds. When E-E0 value was greater than 10%, it was counted as a synergistic effect, less than −10%, it was counted as an antagonistic effect, and between −10%˜10%, it was counted as an additive effect. According to a plurality of factors including an actual control efficacy, a herbicide characteristic, a formula balance and other factors to determine the best ratio. In the formula, X is the fresh weight inhibition rate of the ingredient A at a dosage of P; Y is the fresh weight inhibition rate of the active ingredient B at a dosage of Q.
(§10) The statistical results are shown in Table 1 to Table 44 below, except for those marked clearly as “pre-emergence treatment”, all others are “post-emergence treatment”. […]

eclipta prostrata [1] = assay: as above
Method: as §2, §3, §4, §5, §6, §7, §8, §9, §10

eleusine indica = assay: as above
Method: as §2, §3, §4, §5, §6, §7, §8, §9, §10

eclipta prostrata [2] = assay: Indoor virulence and combined effect, greenhouse pot test, post-emergence stem and leaf spray, fresh weight inhibition
How it was run: as §1

CCOC(=O)C(C)(C)OC(=O)c1cc(-n2c(=O)cc(C(F)(F)F)n(C)c2=O)c(F)cc1Cl [Compound A-250]
Fresh weight inhibition rate %, A single agent (veronica persica; Table 9, 10 g a.i./ha, post-emergence, 21 days after treatment): 68.79%
Fresh weight inhibition rate %, A single agent (veronica persica; Table 9, 15 g a.i./ha, post-emergence, 21 days after treatment): 70.47%
Fresh weight inhibition rate %, A single agent (veronica persica; Table 9, 20 g a.i./ha, post-emergence, 21 days after treatment): 82.86%
Fresh weight inhibition rate %, A single agent (veronica persica; Table 23, A 5 g a.i./ha): 62.6%
Fresh weight inhibition rate %, A single agent (veronica persica; Table 23, A 10 g a.i./ha): 68.79%
Fresh weight inhibition rate %, A single agent (veronica persica; Table 23, A 15 g a.i./ha): 70.47%
Fresh weight inhibition rate %, A single agent (veronica persica; Table 24, A 5 g a.i./ha): 62.6%
Fresh weight inhibition rate %, A single agent (veronica persica; Table 24, A 10 g a.i./ha): 68.79%
Fresh weight inhibition rate %, A single agent (veronica persica; Table 24, A 15 g a.i./ha): 70.47%
Fresh weight inhibition rate %, A single agent (veronica persica; Table 24, A 20 g a.i./ha): 82.86%
Fresh weight inhibition rate %, A single agent (veronica persica; Table 26, A 2 g a.i./ha): 24.6%
Fresh weight inhibition rate %, A single agent (veronica persica; Table 26, A 5 g a.i./ha): 62.6%
Fresh weight inhibition rate %, A single agent (veronica persica; Table 26, A 10 g a.i./ha): 68.79%
Fresh weight inhibition rate %, A single agent (veronica persica; Table 26, A 15 g a.i./ha): 70.47%
Fresh weight inhibition rate %, A single agent (setaria viridis; Table 6, 10 g a.i./ha, post-emergence, 21 days after treatment): 52.54%
Fresh weight inhibition rate %, A single agent (setaria viridis; Table 6, 15 g a.i./ha, post-emergence, 21 days after treatment): 65.7%
Fresh weight inhibition rate %, A single agent (setaria viridis; Table 6, 20 g a.i./ha, post-emergence, 21 days after treatment): 78.77%
Fresh weight inhibition rate %, A single agent (setaria viridis; Table 8, 10 g a.i./ha, post-emergence, 21 days after treatment): 52.54%
Fresh weight inhibition rate %, A single agent (setaria viridis; Table 8, 15 g a.i./ha, post-emergence, 21 days after treatment): 65.7%
Fresh weight inhibition rate %, A single agent (setaria viridis; Table 8, 20 g a.i./ha, post-emergence, 21 days after treatment): 78.77%
Fresh weight inhibition rate %, A single agent (setaria viridis; Table 10, A 10 g a.i./ha): 52.54%
Fresh weight inhibition rate %, A single agent (setaria viridis; Table 10, A 15 g a.i./ha): 65.7%
Fresh weight inhibition rate %, A single agent (setaria viridis; Table 10, A 20 g a.i./ha): 78.77%
Fresh weight inhibition rate %, A single agent (digitaria sanguinalis; Table 39, A 15 g a.i./ha): 68.96%
Fresh weight inhibition rate %, A single agent (digitaria sanguinalis; Table 39, A 20 g a.i./ha): 75.50%
Fresh weight inhibition rate %, A single agent (digitaria sanguinalis; Table 39, A 25 g a.i./ha): 85.50%
Fresh weight inhibition rate %, A single agent (digitaria sanguinalis; Table 40, A 15 g a.i./ha): 68.96%
Fresh weight inhibition rate %, A single agent (digitaria sanguinalis; Table 40, A 20 g a.i./ha): 75.50%
Fresh weight inhibition rate %, A single agent (eclipta prostrata [1]; Table 28, A 5 g a.i./ha): 52.89%
Fresh weight inhibition rate %, A single agent (eclipta prostrata [1]; Table 28, A 10 g a.i./ha): 66.05%
Fresh weight inhibition rate %, A single agent (eclipta prostrata [1]; Table 28, A 15 g a.i./ha): 68.5%
Fresh weight inhibition rate %, A single agent (eclipta prostrata [1]; Table 28, A 20 g a.i./ha): 78.12%
Fresh weight inhibition rate %, A single agent (eleusine indica; Table 21, A 25 g a.i./ha): 69.44%
Fresh weight inhibition rate %, A single agent (eleusine indica; Table 21, A 30 g a.i./ha): 90.86%

COCCOC(=O)C(C)(C)OC(=O)c1cc(-n2c(=O)cc(C(F)(F)F)n(C)c2=O)c(F)cc1Cl [Compound A-273]
Fresh weight inhibition rate %, A single agent (eclipta prostrata [2]; Table 11, A 2 g a.i./ha): 28.12%
Fresh weight inhibition rate %, A single agent (eclipta prostrata [2]; Table 11, A 4 g a.i./ha): 38.50%
Fresh weight inhibition rate %, A single agent (eclipta prostrata [2]; Table 11, A 8 g a.i./ha): 46.05%
Fresh weight inhibition rate %, A single agent (eclipta prostrata [2]; Table 11, A 16 g a.i./ha): 52.89%
Fresh weight inhibition rate %, A single agent (eclipta prostrata [2]; Table 12, A 4 g a.i./ha): 38.50%
Fresh weight inhibition rate %, A single agent (eclipta prostrata [2]; Table 12, A 8 g a.i./ha): 46.05%
Fresh weight inhibition rate %, A single agent (eclipta prostrata [2]; Table 12, A 16 g a.i./ha): 52.89%
Fresh weight inhibition rate %, A single agent (eclipta prostrata [2]; Table 42, A 2 g a.i./ha): 28.12%
Fresh weight inhibition rate %, A single agent (eclipta prostrata [2]; Table 42, A 4 g a.i./ha): 38.50%
Fresh weight inhibition rate %, A single agent (eclipta prostrata [2]; Table 42, A 8 g a.i./ha): 46.05%
Fresh weight inhibition rate %, A single agent (eclipta prostrata [2]; Table 42, A 16 g a.i./ha): 52.89%
Fresh weight inhibition rate %, A single agent (eclipta prostrata [2]; Table 43, A 4 g a.i./ha): 38.50%
Fresh weight inhibition rate %, A single agent (eclipta prostrata [2]; Table 43, A 8 g a.i./ha): 46.05%
